Laboratory results: patent US11117892B2, “Pyrrolo-pyridine derivative compound, method for preparing same, and pharmaceutical composition containing same as active ingredient for prevention or treatment of protein kinase-related diseases” (DAEGU-GYEONGBUK MEDICAL INNOVATION FOUNDATION, priority 2017, dated 2021)

How the values were obtained:
Assay in all cases: scanMAX Kinase assay panel
Assay type in all cases: binding
Conditions in all cases: read-out: % control
[1] = target: ACVR2A (Homo sapiens (Human), UniProt P27037)
Sequence of ACVR2A (P27037 20-513): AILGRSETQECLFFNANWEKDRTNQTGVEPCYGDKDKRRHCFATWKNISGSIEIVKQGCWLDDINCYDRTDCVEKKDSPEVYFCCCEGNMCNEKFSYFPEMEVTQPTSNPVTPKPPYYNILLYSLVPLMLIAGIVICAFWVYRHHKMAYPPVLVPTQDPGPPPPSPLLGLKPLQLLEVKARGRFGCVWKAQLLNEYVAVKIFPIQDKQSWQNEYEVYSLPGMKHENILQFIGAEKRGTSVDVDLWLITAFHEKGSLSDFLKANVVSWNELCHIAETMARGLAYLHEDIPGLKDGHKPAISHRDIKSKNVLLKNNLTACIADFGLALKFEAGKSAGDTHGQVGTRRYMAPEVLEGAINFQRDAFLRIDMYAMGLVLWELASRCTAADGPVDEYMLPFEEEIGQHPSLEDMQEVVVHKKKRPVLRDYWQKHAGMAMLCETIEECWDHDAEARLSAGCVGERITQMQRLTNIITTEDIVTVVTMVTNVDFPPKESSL
Outline: (§1)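 Panel: scanMAX. Metric: % control. The 100% anchor is DMSO and the 0% anchor is the positive control.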

[2] = target: BRSK1 (Homo sapiens (Human), UniProt Q8TDC3)
Outline: as §1

[3] = target: CAMK2B (Homo sapiens (Human), UniProt Q13554)
Outline: as §1

[4] = target: CDK9 (Homo sapiens (Human), UniProt P50750)
Outline: as §1

[5] = target: CIT (Homo sapiens (Human), UniProt O14578)
Outline: as §1

[6] = target: CSNK1G1 (Homo sapiens (Human), UniProt Q9HCP0)
Outline: as §1

[7] = target: EGFR(G719C) (Homo sapiens (Human), UniProt P00533, G719C)
Outline: as §1

[8] = target: EGFR(L747-E749del, A750P) (Homo sapiens (Human), UniProt P00533, A750P/DEL747-749)
Outline: as §1

[9] = target: EGFR(L861Q) (Homo sapiens (Human), UniProt P00533, L861Q)
Outline: as §1

[10] = target: EPHA1 (Homo sapiens (Human), UniProt P21709)
Outline: as §1

[11] = target: EPHB2 (Homo sapiens (Human), UniProt P29323)
Outline: as §1

[12] = target: FLT3 (Homo sapiens (Human), UniProt P36888)
Outline: as §1

[13] = target: FLT3(D835H) (Homo sapiens (Human), UniProt P36888, D835H)
Outline: as §1

[14] = target: JNK1 (Homo sapiens (Human), UniProt P45983)
Outline: as §1

[15] = target: KIT(A829P) (Homo sapiens (Human), UniProt P10721, A829P)
Outline: as §1

[16] = target: KIT(V559D) (Homo sapiens (Human), UniProt P10721, V559D)
Outline: as §1

[17] = target: KIT(V559D, V654A) (Homo sapiens (Human), UniProt P10721, V559D/V654A)
Outline: as §1

[18] = target: LIMK1 (Homo sapiens (Human), UniProt P53667)
Outline: as §1

[19] = target: LTK (Homo sapiens (Human), UniProt P29376)
Outline: as §1

[20] = target: MET (Homo sapiens (Human), UniProt P08581)
Outline: as §1

[21] = target: MLK3 (Homo sapiens (Human), UniProt Q16584)
Sequence of MLK3 (Q16584 whole entry): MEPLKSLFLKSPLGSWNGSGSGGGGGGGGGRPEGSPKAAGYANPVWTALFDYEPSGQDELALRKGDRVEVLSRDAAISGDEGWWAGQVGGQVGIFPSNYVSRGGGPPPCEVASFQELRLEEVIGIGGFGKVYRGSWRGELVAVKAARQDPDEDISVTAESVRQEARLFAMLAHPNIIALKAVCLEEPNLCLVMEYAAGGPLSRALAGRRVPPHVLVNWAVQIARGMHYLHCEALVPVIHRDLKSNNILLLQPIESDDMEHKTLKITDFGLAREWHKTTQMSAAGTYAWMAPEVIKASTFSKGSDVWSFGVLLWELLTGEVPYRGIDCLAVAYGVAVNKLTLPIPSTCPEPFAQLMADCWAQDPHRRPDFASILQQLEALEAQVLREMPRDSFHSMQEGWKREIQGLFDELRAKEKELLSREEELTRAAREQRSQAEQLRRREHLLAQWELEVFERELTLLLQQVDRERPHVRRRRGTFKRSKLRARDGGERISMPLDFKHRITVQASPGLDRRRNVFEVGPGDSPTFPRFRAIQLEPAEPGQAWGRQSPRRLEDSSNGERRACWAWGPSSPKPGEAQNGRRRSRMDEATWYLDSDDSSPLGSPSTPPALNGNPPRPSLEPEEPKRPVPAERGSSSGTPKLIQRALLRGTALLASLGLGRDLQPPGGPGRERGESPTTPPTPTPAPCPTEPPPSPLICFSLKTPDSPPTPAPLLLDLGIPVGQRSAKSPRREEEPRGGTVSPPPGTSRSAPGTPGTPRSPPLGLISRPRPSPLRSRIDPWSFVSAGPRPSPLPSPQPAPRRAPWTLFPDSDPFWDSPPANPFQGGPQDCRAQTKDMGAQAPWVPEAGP
Outline: as §1

[22] = target: MST1 (Homo sapiens (Human), UniProt Q13043)
Outline: as §1

[23] = target: NDR2 (Homo sapiens (Human), UniProt Q9Y2H1)
Outline: as §1

[24] = target: NEK1 (Homo sapiens (Human), UniProt Q96PY6)
Outline: as §1

[25] = target: PFTK1 (Homo sapiens (Human), UniProt O94921)
Sequence of PFTK1 (O94921 whole entry): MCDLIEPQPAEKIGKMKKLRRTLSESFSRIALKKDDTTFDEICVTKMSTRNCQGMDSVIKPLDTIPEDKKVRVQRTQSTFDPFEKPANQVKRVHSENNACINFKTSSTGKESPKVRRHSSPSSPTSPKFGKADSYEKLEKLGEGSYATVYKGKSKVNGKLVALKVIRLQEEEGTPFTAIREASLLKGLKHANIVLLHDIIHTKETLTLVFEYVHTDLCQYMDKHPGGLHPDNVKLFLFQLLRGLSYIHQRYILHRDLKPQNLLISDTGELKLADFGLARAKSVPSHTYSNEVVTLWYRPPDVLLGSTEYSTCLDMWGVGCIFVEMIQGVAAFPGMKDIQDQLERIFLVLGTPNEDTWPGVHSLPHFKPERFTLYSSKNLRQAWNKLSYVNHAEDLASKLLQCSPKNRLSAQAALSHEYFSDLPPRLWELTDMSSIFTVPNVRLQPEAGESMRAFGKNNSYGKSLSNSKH
Outline: as §1

[26] = target: PIK3CA(E545K) (Homo sapiens (Human), UniProt P42336, E545K)
Outline: as §1

[27] = target: PKAC-alpha (Homo sapiens (Human), UniProt P17612)
Outline: as §1

[28] = target: PRKD2 (Homo sapiens (Human), UniProt Q9BZL6)
Outline: as §1

[29] = target: STK16 (Homo sapiens (Human), UniProt O75716)
Sequence of STK16 (O75716 whole entry): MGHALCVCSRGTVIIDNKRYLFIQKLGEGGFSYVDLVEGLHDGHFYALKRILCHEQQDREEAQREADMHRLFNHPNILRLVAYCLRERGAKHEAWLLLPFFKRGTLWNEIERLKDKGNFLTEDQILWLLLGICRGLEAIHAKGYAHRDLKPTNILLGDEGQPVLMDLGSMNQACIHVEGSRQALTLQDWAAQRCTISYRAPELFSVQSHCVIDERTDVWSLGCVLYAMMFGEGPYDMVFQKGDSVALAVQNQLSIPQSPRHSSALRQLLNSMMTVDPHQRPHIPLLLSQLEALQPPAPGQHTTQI
Outline: as §1

[30] = target: STK33 (Homo sapiens (Human), UniProt Q9BYT3)
Outline: as §1

[31] = target: STK39 (Homo sapiens (Human), UniProt Q9UEW8)
Outline: as §1

[32] = target: TNK1 (Homo sapiens (Human), UniProt Q13470)
Sequence of TNK1 (Q13470 whole entry): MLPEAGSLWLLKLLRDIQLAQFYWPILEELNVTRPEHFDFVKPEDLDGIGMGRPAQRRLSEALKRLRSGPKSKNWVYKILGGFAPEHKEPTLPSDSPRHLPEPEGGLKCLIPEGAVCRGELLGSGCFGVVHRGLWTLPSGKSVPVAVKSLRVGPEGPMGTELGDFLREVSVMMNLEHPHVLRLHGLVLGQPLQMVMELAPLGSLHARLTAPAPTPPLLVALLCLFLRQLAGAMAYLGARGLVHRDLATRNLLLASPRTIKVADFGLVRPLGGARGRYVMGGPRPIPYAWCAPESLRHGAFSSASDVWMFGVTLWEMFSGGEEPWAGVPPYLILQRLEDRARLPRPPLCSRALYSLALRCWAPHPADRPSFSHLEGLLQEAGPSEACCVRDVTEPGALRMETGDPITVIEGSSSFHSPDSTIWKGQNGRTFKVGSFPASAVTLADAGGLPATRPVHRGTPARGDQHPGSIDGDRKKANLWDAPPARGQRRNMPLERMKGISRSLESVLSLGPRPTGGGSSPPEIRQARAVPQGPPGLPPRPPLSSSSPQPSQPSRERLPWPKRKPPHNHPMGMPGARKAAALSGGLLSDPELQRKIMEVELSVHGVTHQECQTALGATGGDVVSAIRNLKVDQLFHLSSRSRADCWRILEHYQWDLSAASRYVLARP
Outline: as §1

[33] = target: TRKA (Homo sapiens (Human), UniProt P04629)
Outline: as §1

[34] = target: TTK (Homo sapiens (Human), UniProt P33981)
Outline: as §1

[35] = target: WNK2 (Homo sapiens (Human), UniProt Q9Y3S1)
Sequence of WNK2 (Q9Y3S1 whole entry): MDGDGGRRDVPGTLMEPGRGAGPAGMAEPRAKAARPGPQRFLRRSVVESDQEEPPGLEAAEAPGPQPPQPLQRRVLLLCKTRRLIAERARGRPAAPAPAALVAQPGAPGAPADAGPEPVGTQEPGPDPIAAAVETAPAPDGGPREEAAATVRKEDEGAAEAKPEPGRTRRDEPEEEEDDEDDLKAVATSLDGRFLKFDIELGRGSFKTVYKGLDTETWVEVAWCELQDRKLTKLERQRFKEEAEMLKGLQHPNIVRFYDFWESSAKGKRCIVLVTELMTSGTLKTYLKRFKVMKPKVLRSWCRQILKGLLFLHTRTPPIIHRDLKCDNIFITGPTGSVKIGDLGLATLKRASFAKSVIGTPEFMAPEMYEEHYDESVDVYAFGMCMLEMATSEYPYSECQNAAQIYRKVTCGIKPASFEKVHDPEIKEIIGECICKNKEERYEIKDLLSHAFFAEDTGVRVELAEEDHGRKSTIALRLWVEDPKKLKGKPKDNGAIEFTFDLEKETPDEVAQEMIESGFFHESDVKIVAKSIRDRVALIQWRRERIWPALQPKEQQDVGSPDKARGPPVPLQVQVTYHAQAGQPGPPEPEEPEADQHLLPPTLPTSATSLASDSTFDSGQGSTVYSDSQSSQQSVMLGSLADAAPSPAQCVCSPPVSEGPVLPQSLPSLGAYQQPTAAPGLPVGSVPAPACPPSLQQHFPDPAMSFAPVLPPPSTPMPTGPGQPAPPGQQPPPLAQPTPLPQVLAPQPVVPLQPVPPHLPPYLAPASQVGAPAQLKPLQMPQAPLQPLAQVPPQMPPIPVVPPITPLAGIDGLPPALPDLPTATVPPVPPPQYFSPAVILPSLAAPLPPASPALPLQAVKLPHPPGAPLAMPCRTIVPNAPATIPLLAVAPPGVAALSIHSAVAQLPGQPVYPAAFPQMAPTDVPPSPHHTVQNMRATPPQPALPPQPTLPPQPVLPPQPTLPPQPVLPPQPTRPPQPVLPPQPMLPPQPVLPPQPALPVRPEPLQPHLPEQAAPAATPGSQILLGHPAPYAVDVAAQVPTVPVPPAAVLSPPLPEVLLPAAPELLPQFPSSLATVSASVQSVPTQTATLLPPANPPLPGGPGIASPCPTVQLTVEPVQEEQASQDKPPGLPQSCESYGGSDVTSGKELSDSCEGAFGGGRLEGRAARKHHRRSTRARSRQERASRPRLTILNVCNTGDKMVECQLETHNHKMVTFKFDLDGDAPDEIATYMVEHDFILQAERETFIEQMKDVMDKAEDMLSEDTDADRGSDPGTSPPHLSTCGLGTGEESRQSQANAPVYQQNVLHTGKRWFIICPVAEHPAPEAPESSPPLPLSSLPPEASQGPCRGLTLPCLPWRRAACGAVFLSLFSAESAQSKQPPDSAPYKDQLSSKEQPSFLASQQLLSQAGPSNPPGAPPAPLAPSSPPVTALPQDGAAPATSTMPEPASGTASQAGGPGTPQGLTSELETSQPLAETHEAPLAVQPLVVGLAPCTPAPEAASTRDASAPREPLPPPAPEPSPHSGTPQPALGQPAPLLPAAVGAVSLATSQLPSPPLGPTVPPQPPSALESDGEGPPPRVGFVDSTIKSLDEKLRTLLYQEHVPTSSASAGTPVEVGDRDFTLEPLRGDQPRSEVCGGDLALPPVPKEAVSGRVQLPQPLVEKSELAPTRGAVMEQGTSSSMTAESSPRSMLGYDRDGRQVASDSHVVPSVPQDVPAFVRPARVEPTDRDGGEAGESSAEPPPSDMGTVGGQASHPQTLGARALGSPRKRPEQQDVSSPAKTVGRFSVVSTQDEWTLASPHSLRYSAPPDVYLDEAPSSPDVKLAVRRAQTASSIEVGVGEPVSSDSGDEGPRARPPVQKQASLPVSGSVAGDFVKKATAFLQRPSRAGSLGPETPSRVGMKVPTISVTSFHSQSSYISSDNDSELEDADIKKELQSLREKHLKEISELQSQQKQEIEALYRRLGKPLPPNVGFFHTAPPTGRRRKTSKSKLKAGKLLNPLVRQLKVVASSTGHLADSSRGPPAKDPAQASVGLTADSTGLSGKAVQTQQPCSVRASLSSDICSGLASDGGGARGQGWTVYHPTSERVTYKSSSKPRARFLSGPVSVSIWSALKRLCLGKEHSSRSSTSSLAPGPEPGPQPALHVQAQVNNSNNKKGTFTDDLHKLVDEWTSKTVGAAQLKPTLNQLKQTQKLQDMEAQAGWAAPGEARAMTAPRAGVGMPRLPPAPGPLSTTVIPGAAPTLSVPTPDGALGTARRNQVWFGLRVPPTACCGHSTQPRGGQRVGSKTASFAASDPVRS
Outline: as §1

[36] = target: YANK1 (Homo sapiens (Human), UniProt Q8WU08)
Outline: as §1

[37] = target: YANK2 (Homo sapiens (Human), UniProt Q9NY57)
Outline: as §1

[38] = target: p38-beta (Homo sapiens (Human), UniProt Q15759)
Outline: as §1

SMILES: CCNc1cc(Nc2ccc(C(=O)N3CCC(N4CCOCC4)CC3)cc2OC)nc2[nH]cc(C(F)(F)F)c12 [Example 57, (4-((4-(ethylamino)-3-(trifluoromethyl)-1H-pyrrolo[2,3-b]pyridin-6-yl)amino)-3-methoxyphenyl) (4-morpholinopiperidin-1-yl)methanone]
- remaining binding at 1 µM [1]: 99%
- remaining binding at 1 µM [2]: 94%
- remaining binding at 1 µM [3]: 80%
- remaining binding at 1 µM [4]: 85%
- remaining binding at 1 µM [5]: 66%
- remaining binding at 1 µM [6]: 88%
- remaining binding at 1 µM [7]: 91%
- remaining binding at 1 µM [8]: 94%
- remaining binding at 1 µM [9]: 94%
- remaining binding at 1 µM [10]: 78%
- remaining binding at 1 µM [11]: 100%
- remaining binding at 1 µM [12]: 100%
- remaining binding at 1 µM [13]: 100%
- remaining binding at 1 µM [14]: 40%
- remaining binding at 1 µM [15]: 100%
- remaining binding at 1 µM [16]: 77%
- remaining binding at 1 µM [17]: 84%
- remaining binding at 1 µM [18]: 99%
- remaining binding at 1 µM [19]: 20%
- remaining binding at 1 µM [20]: 100%
- remaining binding at 1 µM [21]: 80%
- remaining binding at 1 µM [22]: 76%
- remaining binding at 1 µM [23]: 80%
- remaining binding at 1 µM [24]: 81%
- remaining binding at 1 µM [25]: 95%
- remaining binding at 1 µM [26]: 73%
- remaining binding at 1 µM [27]: 100%
- remaining binding at 1 µM [28]: 83%
- remaining binding at 1 µM [29]: 64%
- remaining binding at 1 µM [30]: 16%
- remaining binding at 1 µM [31]: 43%
- remaining binding at 1 µM [32]: 100%
- remaining binding at 1 µM [33]: 100%
- remaining binding at 1 µM [34]: 67%
- remaining binding at 1 µM [35]: 100%
- remaining binding at 1 µM [36]: 100%
- remaining binding at 1 µM [37]: 94%
- remaining binding at 1 µM [38]: 76%

SMILES: CCNc1cc(Nc2ccc(C(=O)N3CCC(N4CCOCC4)CC3)cc2OC)nc2[nH]cc(C#N)c12 [Example 18, 4-(ethylamino)-6-((2-methoxy-4-(4-morpholinopiperidine-1-carbonyl)phenyl)amino)-1H-pyrrolo[2,3-b]pyridine-3-carbonitrile]
- remaining binding at 1 µM [1]: 100%
- remaining binding at 1 µM [2]: 94%
- remaining binding at 1 µM [3]: 73%
- remaining binding at 1 µM [4]: 100%
- remaining binding at 1 µM [5]: 71%
- remaining binding at 1 µM [6]: 43%
- remaining binding at 1 µM [7]: 95%
- remaining binding at 1 µM [8]: 100%
- remaining binding at 1 µM [9]: 85%
- remaining binding at 1 µM [10]: 91%
- remaining binding at 1 µM [11]: 87%
- remaining binding at 1 µM [12]: 83%
- remaining binding at 1 µM [13]: 89%
- remaining binding at 1 µM [14]: 0%
- remaining binding at 1 µM [15]: 99%
- remaining binding at 1 µM [16]: 33%
- remaining binding at 1 µM [17]: 97%
- remaining binding at 1 µM [18]: 92%
- remaining binding at 1 µM [19]: 6.2%
- remaining binding at 1 µM [20]: 100%
- remaining binding at 1 µM [21]: 99%
- remaining binding at 1 µM [22]: 99%
- remaining binding at 1 µM [23]: 95%
- remaining binding at 1 µM [24]: 100%
- remaining binding at 1 µM [25]: 89%
- remaining binding at 1 µM [26]: 92%
- remaining binding at 1 µM [27]: 70%
- remaining binding at 1 µM [28]: 2%
- remaining binding at 1 µM [29]: 60%
- remaining binding at 1 µM [30]: 17%
- remaining binding at 1 µM [31]: 26%
- remaining binding at 1 µM [32]: 81%
- remaining binding at 1 µM [33]: 86%
- remaining binding at 1 µM [34]: 8.9%
- remaining binding at 1 µM [35]: 91%
- remaining binding at 1 µM [36]: 100%
- remaining binding at 1 µM [37]: 100%
- remaining binding at 1 µM [38]: 77%
